# Source: PMC6199279, “Design of Peptoid-peptide Macrocycles to Inhibit the β-catenin TCF Interaction in Prostate Cancer” (Nature Communications, 2018)
# pIC50: −log10 of the molar value. Read-outs that look alike come from different tables or passages of the source. Numbered stars: 1 amine (or outer) side, 2 acyl side, 3 side chain; on linkers, the order of the positions; unused ones are H or OH. Square brackets hold non-standard residues; d marks the D form. Peptide text beside a SMILES is read from it. N(2-(2-PhOPh)Et)Gly = O=C(O)CNCCc1ccccc1Oc1ccccc1; Gly(N-3,5-(OMe)2-Ph) = COc1cc(NCC(=O)O)cc(OC)c1; X1 = COc1ccc([C@H](C)N(CC(=O)[*:2])[*:1])cc1; N((CH2)3OiPr)Gly = CC(C)OCCCNCC(=O)O
# Assays:
# [1] = test system: TOP-Flash Wnt luciferase reporter; test: TOP-Flash Wnt luciferase reporter assay in LNCaP-abl cells; assay type: cell-based
# Text: Using a TOP-Flash Wnt luciferase reporter, we tested the 12 oligomers identified from in silico modeling for inhibitory activity (Fig. 2b). […] We also employed a 3 × -Androgen Response Element (ARE) luciferase reporter to measure the effect on AR activity. […] As additional controls, we obtained previously developed, commercially available Wnt inhibitors and tested them in the Wnt luciferase assay (Supplementary Fig. 5).
# (§1) We next characterized the dose response curves for compound 13 in the Wnt and AR luciferase reporters. The linear version of 13 (linear 13: NH2-|N-mpp, N-dmp, N-ipp, N-Smpe, N-Smpe, D-Ala|-OH) was used as a control compound. […] To test direct binding, we pre-formed dynamic light scattering (DLS) with β-catenin in the presence of vehicle, compound 13, and α-cyclodextrin. […] HEK293 cells were transiently transfected with a plasmid expressing full length, myc-tagged TCF4. After 48 h treatment with either vehicle (DMSO) or 10 µM 13, cells were lysed and myc-TCF4 protein was immunoprecipitated.
# LNCaP-abl and LNCaP-95 cells were cultured in indicator free RPMI 1640 media (Life) supplemented with 10% charcoal stripped FBS, 1% pennicillin/streptomycin, and 1% L-Glutamine. HEK-293 Cells were cultured in DMEM media (Life) supplemented with 10%FBS and 1% pennicillin/streptomycin. A549 and U2OS cells were cultured in RPMI 1640 media (Life) and McCoy’s 5 A modified media (Life), respectively, both supplemented with 10%FBS and 1% pennicillin/streptomycin. LNCaP-abl, and LNCaP-95 cell lines were generous gifts from Z. Culig (Innsbruck Medical University, Austria) and J. Isaacs (Johns Hopkins University, Baltimore, MD), respectively. Cell lines were authenticated by STR profiling (Genetica Cell Line Testing; Burlington, NC). A549 and U2OS were purchased from ATCC (product numbers CCL-185 and HTB-96). Cell lines were routinely screened for mycoplasma. Luciferase assays were conducted using stably transfected TOP-flash and 3xARE LNCaP-abl cell lines. For the Wnt pathway, TOP-Flash LNCaP-abl cells were treated with 1 nM siAPC (a 1:1:1 mix of Ambion Silencer Silect siAPC RNA, ID#s s1433, s1434, s1435) for 24 h and seeded into 384-well plates at 5000 cells/well, followed by 24 h of treatment with compound. For the AR-pathway, 3xARE LNCaP-abl cells were seeded into 384-well plates at 5000 cells per well, treated for 48 h with compound, with the addition of R1881 for the final 8 h. Both were measured using the ONE-Glo detection kit (Promega) and data is standardized to CellTiter-Fluor (Promega) viability readings to account for potential variations in well to well cell number. Control Wnt inhibitors were purchased from Sigma with the exception of PRI-724 which was purchased from Selleckchem. Co-immunoprecipitation was carried out using HEK293 cells transfected with either myc-TCF (addgene #32738) or myc-TCF dominant negative (addgene #32739) followed by 48 h of treatment with compound. Cells were lysed using Triton lysis buffer and 1 mg total protein was incubated overnight at 4 C with 40 µl anti-cMyc magnetic beads (Thermo). Total protein concentration in cell lysates were determined using Pierce Rapid Gold BCA Protein Assay Kit (Thermo). The beads were washed 3× with lysis buffer then boiled in 2X sample loading dye. SDS-PAGE and western blotting were performed using anti-Myc (CST 2276) and anti-β-catenin (CST 8480). Both antibodies were diluted in blocking buffer 1:1000 and incubated overnight at 4 C with the membrane. […]
# [2] = biological target: β-catenin:TCF4 interaction (Homo sapiens, UniProt P35222); test: biochemical
# β-catenin:TCF4 interaction, sequence (P35222 134-668): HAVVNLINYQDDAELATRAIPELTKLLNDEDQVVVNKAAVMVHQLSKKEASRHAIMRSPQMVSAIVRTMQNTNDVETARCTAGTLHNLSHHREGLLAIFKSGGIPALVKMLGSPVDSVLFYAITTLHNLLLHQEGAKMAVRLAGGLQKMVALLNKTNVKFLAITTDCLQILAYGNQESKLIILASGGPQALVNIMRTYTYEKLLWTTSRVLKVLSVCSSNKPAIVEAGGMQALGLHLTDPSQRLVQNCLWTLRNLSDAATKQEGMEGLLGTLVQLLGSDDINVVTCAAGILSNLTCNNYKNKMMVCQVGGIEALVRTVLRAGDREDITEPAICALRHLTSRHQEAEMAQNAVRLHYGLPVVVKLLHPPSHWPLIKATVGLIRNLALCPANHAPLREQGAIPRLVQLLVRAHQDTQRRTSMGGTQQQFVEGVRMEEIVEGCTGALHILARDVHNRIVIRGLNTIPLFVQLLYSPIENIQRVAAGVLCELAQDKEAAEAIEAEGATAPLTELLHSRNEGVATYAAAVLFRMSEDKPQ
# Procedure: as §1
# [3] = test system: LNCaP-abl spheroids
# Procedure: To evaluate the impact of the compounds under 3D cell culture conditions thought to be more representative of tumors, we grew LNCaP-abl cells in low attachment plates. The effects on spheroid formation and growth were evaluated following treatment with vehicle, 13, or linear 13 administered at the time of seeding at low cell density in a 384-well plate. In a separate experiment, to test the impact on pre-formed spheroids, cells were treated 5 days after initial seeding. Spheroids from both experiments were grown for 22 days, with compound refreshed on days 5, 9, 13, 16, and 20. […] PrestoBlue was used to measure cell viability on day 22 (Fig. 5b). […] Figure 5c–f depicts spheroid area over time based on size measurements from the images taken throughout the experiment.
# Scale bar represents 400 μm. b End point viability measurements taken on day 22 using PrestoBlue. c–f Time course of spheroid areas calculated from images taken throughout the experiment.
# LNCaP-abl cells were seeded into 384-well ultra-low attachment plates (Corning), 1000 cells/well. Varying concentrations of compound were added either on the same day as seeding or on day 5. Media was changed every 3–4 days using a Biotek automated media exchanger. Images were taken using an ArraySca VTI (Cellomics) on days 5, 9, 13, 16, 20, and 22. Images were analyzed for spheroid area with the HCS Studio Cellomics Scan Version 6.6.0 (Thermo) software. A final viability measurement was taken on day 22 using PrestoBlue reagent (Thermo).
# [4] = test system: Wnt signaling in zebrafish embryos; conditions: zebrafish, in vivo
# Procedure: To evaluate the efficacy of 13 in vivo, we utilized a Danio rerio (zebrafish) model. […] To test this, BIO was added to zebrafish embryos at 6 hpf with and without 13 as described in Fig. 6a.
# The zebrafish phenotypic assay was conducted using wild-type zebrafish embryos seeded into a 96-well round bottom plate at 4 hpf in 50 µl of Fish Water (60 mg/l sea salt, Instant Ocean, Blacksburg, VA, USA) supplemented with 1 mg per L Methylene Blue (Sigma-Aldrich). The embryos were not dechorionated. At 50% epiboly, roughly 5.5 hpf, 50 µl of 30 µM 13 or Linear 13 was added. About 30 min later at shield stage, 50 µl of 6 nM (3×) BIO was added. The embryos were then visualized for the presence of eyes and imaged at 30 hpf. Zebrafish embryos were randomly assigned to non-blinded treatment groups, none were excluded. Sample size was determined with a power calculation to achieve statistical significance (alpha = 0.05, beta = 0.2) if only 60% of the fish had developed eyes.
compound,measurement,setting,value
"COc1ccc([C@H](C)N2CC(=O)N[C@H](C)C(=O)N(CCc3ccccc3Oc3ccccc3)CC(=O)N(c3cc(OC)cc(OC)c3)CC(=O)N(CCCOC(C)C)CC(=O)N([C@@H](C)c3ccc(OC)cc3)CC2=O)cc1 [Compound 13] (cyclo([dA][N(2-(2-PhOPh)Et)Gly][Gly(N-3,5-(OMe)2-Ph)][N((CH2)3OiPr)Gly][X1][X1]))",Wnt inhibitory activity (TOP-Flash luciferase),"[1]; 10 µM compound, relative to vehicle",more effective
same,pIC50,"[1]; TOP-Flash LNCaP-abl cells, siAPC knockdown, 24 h compound, ± SD of three replicates, read-out: IC50 for Wnt luciferase inhibition",6.98
same,pIC50,[2],5.26
same,"Spheroid growth, compound added day 0",[3]; 0.5 µM,slowed growth
same,"Spheroid formation, compound added day 0","[3]; 20 µM, 10 µM, 5 µM, 2 µM and 1 µM",prevented spheroid formation
same,"Growth of pre-formed spheroids, treatment started day 5",[3]; at or above 2 µM,stalled the growth of pre-formed spheroids
same,"Spheroid growth, low concentrations",[3]; between 0.001 µM and 0.1 µM,little effect
same,pIC50,"[3]; read-out: IC50 spheroid proliferation, treatment started Day 0, PrestoBlue viability on day 22, compound added at seeding",6.16
same,pIC50,"[3]; read-out: IC50 spheroid proliferation, treatment started Day 5, PrestoBlue viability on day 22, pre-formed spheroids",5.87
same,Harm to embryo development,[4],does not otherwise harm embryo development
